ChEMBL document CHEMBL1126121, “Non-prostanoid thromboxane A2 receptor antagonists with a dibenzoxepin ring system. 1” (J Med Chem, 1992)

How the values were obtained:
[1] = target: T1, Thromboxane A2 receptor (Homo sapiens) (UniProt P21731); test: Binding affinity for thromboxane A2 receptor by measuring its ability to displace [3H]U-46619 from guinea pig platelets at 0.1 uM; conditions: Cavia porcellus, target entry is the homologue from another species
T1 sequence (whole entry): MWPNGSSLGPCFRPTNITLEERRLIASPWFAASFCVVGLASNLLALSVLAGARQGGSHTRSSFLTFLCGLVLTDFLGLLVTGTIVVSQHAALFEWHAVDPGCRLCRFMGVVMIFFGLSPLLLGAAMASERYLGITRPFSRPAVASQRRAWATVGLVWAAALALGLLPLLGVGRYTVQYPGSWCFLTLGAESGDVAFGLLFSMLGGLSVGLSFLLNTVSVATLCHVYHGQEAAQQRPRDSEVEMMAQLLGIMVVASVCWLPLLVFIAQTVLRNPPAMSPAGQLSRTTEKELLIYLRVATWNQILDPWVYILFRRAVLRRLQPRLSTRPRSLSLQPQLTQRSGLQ

[2] = target: T1, Thromboxane A2 receptor (Homo sapiens); test: Binding affinity for thromboxane A2 receptor by measuring ability to displace [3H]U-46619 from guinea pig platelets at 1 uM; conditions: Cavia porcellus, target entry is the homologue from another species
[3] = target: T1, Thromboxane A2 receptor (Homo sapiens); test: Inhibitory effect against binding thromboxane A2 receptor on guinea pig platelets using [3H]U-46619 as radioligand at 1 uM concentration; conditions: Cavia porcellus, target entry is the homologue from another species
[4] = system: Thromboxane-A synthase (Bos taurus); test: Inhibitory effect against thromboxane A2 synthase from bovine platelets at 10 uM concentration
[5] = target: T2, Thromboxane-A synthase (Homo sapiens) (UniProt P24557); test: Inhibitory activity against thromboxane A2 synthase obtained from bovine platelet microsomes at 10 uM; conditions: Bos taurus, target entry is the homologue from another species
T2 sequence (whole entry): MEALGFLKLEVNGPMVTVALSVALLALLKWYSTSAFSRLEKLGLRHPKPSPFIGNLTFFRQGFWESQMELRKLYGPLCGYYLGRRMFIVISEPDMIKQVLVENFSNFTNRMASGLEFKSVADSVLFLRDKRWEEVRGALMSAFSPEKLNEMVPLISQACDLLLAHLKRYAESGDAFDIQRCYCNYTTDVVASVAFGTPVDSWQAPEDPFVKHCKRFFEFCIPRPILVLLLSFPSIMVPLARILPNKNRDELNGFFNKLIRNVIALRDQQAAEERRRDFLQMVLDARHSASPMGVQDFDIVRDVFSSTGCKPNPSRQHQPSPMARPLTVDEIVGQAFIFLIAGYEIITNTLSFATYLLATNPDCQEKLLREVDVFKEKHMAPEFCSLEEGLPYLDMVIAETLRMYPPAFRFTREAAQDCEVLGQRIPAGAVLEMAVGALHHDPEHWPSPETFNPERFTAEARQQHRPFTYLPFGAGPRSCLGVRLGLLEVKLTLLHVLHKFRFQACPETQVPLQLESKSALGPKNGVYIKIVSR

Cavia porcellus [6] = test: Inhibitory effect of the compounds on U-46619-induced platelet aggregation ex vivo in guinea pig at the dose of 10 mg/kg 7 hr oral after administration; assay type: functional
Cavia porcellus [7] = test: Inhibitory effect of the compounds on U-46619-induced platelet aggregation ex vivo in guinea pig at the dose of 10 mg/kg 4 hr after oral administration; assay type: functional
Cavia porcellus [8] = test: Inhibitory effect of the compounds on U-46619-induced platelet aggregation ex vivo in guinea pig at the dose of 10 mg/kg 2 hr after oral administration; assay type: functional
Cavia porcellus [9] = test: Compound was tested ex vivo for it''s inhibition of U-46619 induced platelet aggregation in the guinea pig after 2 hr of administration at dose 10 mg/kg; assay type: functional
Cavia porcellus [10] = test: Compound was tested ex vivo for it''s inhibition of U-46619 induced platelet aggregation in the guinea pig after 4 hr of administration at dose 10 mg/kg; assay type: functional
Cavia porcellus [11] = test: Compound was tested ex vivo for it's inhibition of U-46619 induced platelet aggregation in the guinea pig after 2 hr of administration at dose 10 mg/kg; assay type: functional

SMILES | inhibition [1] [%] | inhibition [2] [%] | inhibition [3] [%] | inhibition [4] [%] | inhibition [5] [%] | Platelet aggregation (Cavia porcellus [6]) [%] | Platelet aggregation (Cavia porcellus [7]) [%] | Platelet aggregation (Cavia porcellus [8]) [%] | Aggregation (Cavia porcellus [9]) [%] | Aggregation (Cavia porcellus [10]) [%] | Aggregation (Cavia porcellus [11]) [%]
COc1ccc(C(=O)NCCSC2c3ccccc3COc3ccc(C(=O)O)cc32)c(OC)c1OC (stereo unspecified) | 82 | 97 | 97 | – | – | – | – | – | – | – | –
COc1ccc(S(=O)(=O)NCCSC2c3ccccc3COc3ccc(C(=O)O)cc32)cc1OC (stereo unspecified) | 49 | 91 | 91 | 70 | 70 | – | – | – | – | – | –
COc1ccccc1C(=O)NCCSC1c2ccccc2COc2ccc(C(=O)O)cc21 (stereo unspecified) | 86 | 97 | 97 | – | – | – | – | – | – | – | –
O=C(O)c1ccc2c(c1)C(SCCNS(=O)(=O)c1cccc([N+](=O)[O-])c1)c1ccccc1CO2 (stereo unspecified) | 83 | 93 | 93 | 54 | 54 | – | – | – | – | – | –
O=C(O)c1ccc2c(c1)C(SCCNS(=O)(=O)c1cccc3cccnc13)c1ccccc1CO2 (stereo unspecified) | 44 | 90 | 90 | 63 | 63 | – | – | – | – | – | –
COc1cc(C(=O)NCCSC2c3ccccc3COc3ccc(C(=O)O)cc32)cc(OC)c1OC (stereo unspecified) | 50 | 87 | 87 | 92 | 92 | – | – | – | – | – | –
O=C(O)c1ccc2c(c1)C(SCCNS(=O)(=O)c1ccc([N+](=O)[O-])cc1)c1ccccc1CO2 (stereo unspecified) | 58 | 90 | 90 | 41 | 41 | – | – | – | – | – | –
O=C(O)Cc1ccc2c(c1)C(SCCNS(=O)(=O)c1ccccc1)c1ccccc1CO2 (stereo unspecified) | 30 | 84 | – | – | 13 | – | – | – | – | – | –
CN(CCSC1c2ccccc2COc2ccc(C(=O)O)cc21)S(=O)(=O)c1ccccc1 (stereo unspecified) | 73 | 92 | 92 | – | – | – | – | – | – | – | –
O=C(O)c1ccc2c(c1)C(SCCNS(=O)(=O)c1ccccc1)c1ccccc1CC2 (stereo unspecified) | 71 | 95 | 95 | 68 | 68 | – | – | – | – | – | –
COc1ccc(OC)c(S(=O)(=O)NCCSC2c3ccccc3COc3ccc(C(=O)O)cc32)c1 (stereo unspecified) | 66 | 92 | 92 | 62 | 62 | – | – | – | – | – | –
O=C(O)c1ccc2c(c1)C(SCCNS(=O)(=O)/C=C/c1ccccc1)c1ccccc1CO2 (single isomer, unassigned; (+)) | – | – | – | – | – | 10.7 | 2.3 | 0 | – | – | –
O=C(O)c1cccc(C(SCCNS(=O)(=O)c2ccccc2)c2ccccc2)c1 (stereo unspecified) | 41 | 85 | 85 | 19 | 19 | – | – | – | – | – | –
O=C(O)c1ccc2c(c1)C(SCCNS(=O)(=O)c1ccc(F)cc1)c1ccccc1CO2 (stereo unspecified) | 61 | 93 | 93 | 33 | 33 | – | – | – | – | – | –
COc1cccc(OC)c1C(=O)NCCSC1c2ccccc2COc2ccc(C(=O)O)cc21 (stereo unspecified) | 20 | 72 | 72 | – | – | – | – | – | – | – | –
O=C(O)c1ccc2c(c1)C(SCCNS(=O)(=O)c1cccnc1)c1ccccc1CO2 (stereo unspecified) | 67 | 93 | 93 | – | – | – | – | – | – | – | –
O=C(O)c1ccc2c(c1)C(SCCNC(=O)c1ccccc1O)c1ccccc1CO2 (stereo unspecified) | 90 | 99 | 99 | 53 | 53 | – | – | 64.5 | 64.5 | – | –
COc1ccc(S(=O)(=O)NCCSC2c3ccccc3COc3ccc(C(=O)O)cc32)cc1 (stereo unspecified) | 83 | 93 | 93 | 75 | 75 | – | – | – | – | – | –

SMILES | inhibition [1] [%] | inhibition [2] [%] | inhibition [3] [%] | inhibition [4] [%] | inhibition [5] [%] | Platelet aggregation (Cavia porcellus [6]) [%] | Platelet aggregation (Cavia porcellus [7]) [%] | Platelet aggregation (Cavia porcellus [8]) [%] | Aggregation (Cavia porcellus [9]) [%] | Aggregation (Cavia porcellus [10]) [%] | Aggregation (Cavia porcellus [11]) [%]
O=C(O)c1ccc2c(c1)C(SCC/N=C(\S)NCc1ccccc1)c1ccccc1CO2 (stereo unspecified) | 80 | 96 | 96 | 92 | 92 | – | – | 61.7 | – | 61.7 | –
O=C(O)c1ccc2c(c1)C(SCCNS(=O)(=O)c1ccccc1)c1ccccc1C=C2 (stereo unspecified) | 67 | 97 | 97 | 74 | 74 | – | – | – | – | – | –
CCCCCC(=O)NCCSC1c2ccccc2COc2ccc(C(=O)O)cc21 (stereo unspecified) | 51 | 88 | 88 | 4 | 4 | – | – | – | – | – | –
O=C(O)c1ccc2c(c1)C(SCCNS(=O)(=O)c1ccccc1[N+](=O)[O-])c1ccccc1CO2 (stereo unspecified) | 72 | 99 | 99 | 79 | 72 | – | – | – | – | – | –
O=C(O)c1ccc2c(c1)C(SCCNS(=O)(=O)c1ccccc1)c1ccccc1OC2 (stereo unspecified) | 21 | 64 | 64 | 53 | 53 | – | – | – | – | – | –
O=C(O)c1ccc2c(c1)C(SCCNC(=O)c1ccccc1)c1ccccc1CO2 (stereo unspecified) | 69 | 92 | 92 | 63 | 63 | – | – | 68.3 | 68.3 | – | –
Cc1ccc2c(c1)C(SCCNS(=O)(=O)c1ccccc1)c1ccccc1CO2 (stereo unspecified) | 1 | 27 | 27 | -10 | -10 | – | – | – | – | – | –
O=C(O)c1ccc2c(c1)C(SCCNS(=O)(=O)c1ccc(C(F)(F)F)cc1)c1ccccc1CO2 (stereo unspecified) | 70 | 92 | 92 | -9 | -9 | – | – | – | – | – | –
Cc1ccsc1C(=O)NCCSC1c2ccccc2COc2ccc(C(=O)O)cc21 (stereo unspecified) | 81 | 94 | 94 | 79 | 79 | – | – | – | – | – | –
O=C(O)c1ccc2c(c1)C(SCCNC(=O)C1CCCCC1)c1ccccc1CO2 (stereo unspecified) | 20 | 66 | 66 | 19 | 19 | – | – | – | – | – | –
O=C(O)c1ccc2c(c1)C(SCCNS(=O)(=O)c1ccccc1)c1cc(Br)ccc1CO2 (stereo unspecified) | 75 | 94 | 94 | 6 | 6 | – | – | 41 | – | – | 41
O=C(O)c1ccc2c(c1)C(SCCNS(=O)(=O)c1ccc(Cl)cc1)c1ccccc1CO2 (stereo unspecified) | 64 | 94 | 94 | 79 | 79 | – | – | – | – | – | –
O=C(NCCSC1c2ccccc2COc2ccc(C(=O)O)cc21)NCc1ccccc1 (stereo unspecified) | 47 | 87 | 87 | 41 | 41 | – | – | – | – | – | –
O=C(O)c1ccc2c(c1)C(SCCNS(=O)(=O)c1ccccc1)c1ccccc1CS2 (stereo unspecified) | 94 | 99 | 99 | – | – | – | 0 | 0 | 0 | 0 | –
O=C(NCCSC1c2ccccc2COc2ccc(C(=O)O)cc21)Nc1ccccc1 (stereo unspecified) | 67 | 98 | 98 | 58 | 58 | – | – | – | – | – | –
Cc1ccc(S(=O)(=O)NCCSC2c3ccccc3COc3ccc(C(=O)O)cc32)cc1 (stereo unspecified) | 76 | 93 | 93 | 77 | 77 | – | – | – | – | – | –
O=C(O)c1ccc2c(c1)OCc1ccccc1C2SCCNS(=O)(=O)c1ccccc1 (stereo unspecified) | -3 | 36 | 36 | 96 | 96 | – | – | – | – | – | –
